Measured values taken from article PMC11214487, “YZL-51N functions as a selective inhibitor of SIRT7 by NAD^+ competition to impede DNA damage repair” (iScience, 2024).

Target: T1, SIRT1 (Homo sapiens, UniProt Q96EB6)
T1 construct: GST-SIRT1-193-741; GST; purchased Active Motif 7846-50; host or cells: E. coli
T1 sequence (Q96EB6 193-741): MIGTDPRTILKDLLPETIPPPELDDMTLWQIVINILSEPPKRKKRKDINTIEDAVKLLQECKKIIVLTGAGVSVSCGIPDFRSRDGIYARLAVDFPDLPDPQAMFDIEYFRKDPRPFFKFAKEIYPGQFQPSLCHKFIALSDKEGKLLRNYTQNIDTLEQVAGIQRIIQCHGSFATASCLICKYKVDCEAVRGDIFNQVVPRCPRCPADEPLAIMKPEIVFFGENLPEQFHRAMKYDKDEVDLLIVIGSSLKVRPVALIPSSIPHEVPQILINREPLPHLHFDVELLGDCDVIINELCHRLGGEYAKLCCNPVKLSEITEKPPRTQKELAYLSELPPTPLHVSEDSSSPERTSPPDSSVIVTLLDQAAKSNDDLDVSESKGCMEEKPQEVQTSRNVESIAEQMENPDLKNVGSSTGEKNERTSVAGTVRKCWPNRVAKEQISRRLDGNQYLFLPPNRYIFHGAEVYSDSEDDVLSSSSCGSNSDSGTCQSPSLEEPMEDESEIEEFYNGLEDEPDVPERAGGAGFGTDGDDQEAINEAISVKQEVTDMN
Assay: Protein thermal shift assay
Format: binding
Details: 10 μM
Procedure: The mixture containing SIRT1, SIRT6 or SIRT7 proteins, SYPRO Orange, compounds and buffer (100 mM Tris-HCl, 40 mM NaCl, 10 mM MgCl2, pH=7.4) were added into 0.2 mL PCR tubes for a total volume of 20 μL and placed in an ABI ViiA 7 Real-time PCR System. The temperature ranging from 35.0 to 75.0°C was increased at a rate of 0.5°C/s and the fluorescence intensity was monitored in the ROX channel.

Shift in the melting curve: 0.45 °C
Compound: COC(=O)/C(=C\C(=O)c1ccc(O)c(O)c1)c1ccc(O)c(O)c1 [YZL-51N]
